{
  "source": "patent US20250381198A1",
  "about": "(Melt Pharmaceuticals, Inc., priority 2024, published 2025)",
  "key": {"[1]": {"test": "Phase 1 crossover relative bioavailability study: plasma pharmacokinetics of midazolam, 1-hydroxymidazolam, ketamine and norketamine", "protocol": "PK analysis was performed using noncompartmental methods in Phoenix WinNonlin® (Version 8.1, Certara, L.P.) in conjunction with the internet-accessible implementation of the Pharsight® Knowledgebase Server™ (PKSO; Version 4.0.4, Certara, L.P). PKSO provides protected and structured storage, audit trails, and version control for study data, analyses, and related files, supporting 21 CFR Part 11 compliance. The analysis was performed in accordance with the Statistical Analysis Plan (Version 1.0, 5 Jan. 2021).\nDuring the PK analysis, concentrations below the limit of quantitation (BLQ) up to the time of the first quantifiable concentration were treated as zero. Embedded (values between 2 quantifiable concentrations) and terminal BLQ concentrations were treated as “missing”. Calculation of the PK characteristics were based on actual elapsed times [h] (relative to time of dose).\nAll PK analyses were performed on the data from the PK Analysis Population. […] The ANOVA model included factors for sequence, subject within sequence, treatment, and period."}, "[2]": {"system": "subjects undergoing cataract extraction with lens replacement (CELR)", "test": "Phase 2: treatment-emergent ocular adverse events and serious adverse events", "conditions": "for Cataract operation complication, % / Conjunctivitis bacterial, % / Corneal abrasion, % / Corneal oedema, % / Endophthalmitis, % / Eye disorders, % / Eye pain, % / Foreign body sensation in eyes, % / General disorders and administration site conditions, % / Infections and infestations, % / Injury, poisoning and procedural complications, % / Intraocular pressure increased, % / Investigations, % / Ocular hypertension, % / Pain, % / Paracentesis eye, % / Procedural pain, % / Subjects with Any Treatment-Emergent Ocular AEs, % / Vision blurred, %: Full Analysis Set", "protocol": "The study eye (TABLE 32) non-study eye (TABLE 33), or either eye (TABLE 34) was assessed. TEAES were defined as events that started on or after the date of the study drug administration through the end of Visit 4 or early withdrawal. Subjects with one or more adverse event within a level of Medical Dictionary for Regulatory Activities (MedDRA) were counted only once in that level. […] TEAEs of special interest by system, organ class, and preferred term are provided in TABLE 35 for the full analysis set."}, "[3]": {"conditions": "Treatment D: ketamine IV 18 mg, fasted"}},
  "data": [
    {"smiles": "CNC1(c2ccccc2Cl)CCCCC1=O", "note": "(stereo not drawn) [Ketamine, 2-(2-chlorophenyl)-2-(methylamino)cyclohexanone]", "values": [
      {"measurement": "Ketamine AUCExtrap, mean", "setting": "[1]; [3]", "result": 9.64, "unit": "%"},
      {"measurement": "Ketamine Clast, mean", "setting": "[1]; [3]", "result": 1.99, "unit": "ng/mL"},
      {"measurement": "Ketamine Tlast, mean", "setting": "[1]; [3]", "result": 23.7, "unit": "h"},
      {"measurement": "Ketamine Vz, mean", "setting": "[1]; [3]", "result": 867, "unit": "L"},
      {"measurement": "clearance", "setting": "[1]; human, plasma, iv, 18 mg", "result": 998, "unit": "mL/min"},
      {"measurement": "Cataract operation complication, %", "setting": "[2]; Either Eye", "result": "(0) %"},
      {"measurement": "Conjunctivitis bacterial, %", "setting": "[2]; Either Eye", "result": "(1.2) %"},
      {"measurement": "Corneal abrasion, %", "setting": "[2]; Either Eye", "result": "(0) %"},
      {"measurement": "Corneal oedema, %", "setting": "[2]; Either Eye", "result": "(1.2) %"},
      {"measurement": "Endophthalmitis, %", "setting": "[2]; Either Eye", "result": "(1.2) %"},
      {"measurement": "Eye disorders, %", "setting": "[2]; Either Eye", "result": "(5.9) %"},
      {"measurement": "Eye pain, %", "setting": "[2]; Either Eye", "result": "(3.5) %"},
      {"measurement": "Foreign body sensation in eyes, %", "setting": "[2]; Either Eye", "result": "(0) %"},
      {"measurement": "General disorders and administration site conditions, %", "setting": "[2]; Either Eye", "result": "(0) %"},
      {"measurement": "Infections and infestations, %", "setting": "[2]; Either Eye", "result": "(2.4) %"},
      {"measurement": "Injury, poisoning and procedural complications, %", "setting": "[2]; Either Eye", "result": "(0) %"},
      {"measurement": "Intraocular pressure increased, %", "setting": "[2]; Either Eye", "result": "(1.2) %"},
      {"measurement": "Investigations, %", "setting": "[2]; Either Eye", "result": "(1.2) %"},
      {"measurement": "Ocular hypertension, %", "setting": "[2]; Either Eye", "result": "(1.2) %"},
      {"measurement": "Pain, %", "setting": "[2]; Either Eye", "result": "(0) %"},
      {"measurement": "Paracentesis eye, %", "setting": "[2]; Either Eye", "result": "(0) %"},
      {"measurement": "Procedural pain, %", "setting": "[2]; Either Eye", "result": "(0) %"},
      {"measurement": "Subjects with Any Treatment-Emergent Ocular AEs, %", "setting": "[2]; Either Eye", "result": "(8.2) %"},
      {"measurement": "Vision blurred, %", "setting": "[2]; Either Eye", "result": "(0) %"},
      {"measurement": "Paracentesis eye, %", "setting": "[2]; Non-Study Eye (as printed in Table 33)", "result": "(0) %"},
      {"measurement": "Conjunctivitis bacterial, %", "setting": "[2]; Non-Study Eye", "result": "(1.2) %"},
      {"measurement": "Eye disorders, %", "setting": "[2]; Non-Study Eye", "result": "(0) %"},
      {"measurement": "Eye pain, %", "setting": "[2]; Non-Study Eye", "result": "(0) %"},
      {"measurement": "Infections and infestations, %", "setting": "[2]; Non-Study Eye", "result": "(1.2) %"},
      {"measurement": "Subjects with Any Treatment-Emergent Ocular AEs, %", "setting": "[2]; Non-Study Eye", "result": "(1.2) %"},
      {"measurement": "Vision blurred, %", "setting": "[2]; Non-Study Eye", "result": "(0) %"},
      {"measurement": "Cataract operation complication, %", "setting": "[2]; Study Eye", "result": "(0) %"},
      {"measurement": "Corneal abrasion, %", "setting": "[2]; Study Eye", "result": "(0) %"},
      {"measurement": "Corneal oedema, %", "setting": "[2]; Study Eye", "result": "(1.2) %"},
      {"measurement": "Endophthalmitis, %", "setting": "[2]; Study Eye", "result": "(1.2) %"},
      {"measurement": "Eye disorders, %", "setting": "[2]; Study Eye", "result": "(5.9) %"},
      {"measurement": "Eye pain, %", "setting": "[2]; Study Eye", "result": "(3.5) %"},
      {"measurement": "Foreign body sensation in eyes, %", "setting": "[2]; Study Eye", "result": "(0) %"},
      {"measurement": "General disorders and administration site conditions, %", "setting": "[2]; Study Eye", "result": "(0) %"},
      {"measurement": "Infections and infestations, %", "setting": "[2]; Study Eye", "result": "(1.2) %"},
      {"measurement": "Injury, poisoning and procedural complications, %", "setting": "[2]; Study Eye", "result": "(0) %"},
      {"measurement": "Intraocular pressure increased, %", "setting": "[2]; Study Eye", "result": "(1.2) %"},
      {"measurement": "Investigations, %", "setting": "[2]; Study Eye", "result": "(1.2) %"},
      {"measurement": "Ocular hypertension, %", "setting": "[2]; Study Eye", "result": "(1.2) %"},
      {"measurement": "Pain, %", "setting": "[2]; Study Eye", "result": "(0) %"},
      {"measurement": "Procedural pain, %", "setting": "[2]; Study Eye", "result": "(0) %"},
      {"measurement": "Subjects with Any Treatment-Emergent Ocular AEs, %", "setting": "[2]; Study Eye", "result": "(7.1) %"},
      {"measurement": "Subjects who experienced a treatment-emergent ocular adverse event, study eye", "setting": "[2]; overall, MELT-300, midazolam alone, ketamine alone", "result": 7.1, "unit": "%"}
    ]}
  ]
}
